Measured values: article PMC9856672, “SGC-CAMKK2-1: A Chemical Probe for CAMKK2” (Cells, 2023)

What was measured:
[1] = biological target: CAMKK2 (Homo sapiens, UniProt Q96RR4); parameters: purified recombinant CAMKK2 (100 pM) was incubated in assay buffer; method as in earlier work; conditions: reported CAMKK2 inhibitors; ref 47 (Price et al.); cited from earlier work
[2] = Single dose IP pharmacokinetic study in mice; assay type: in vivo, CD-1 mice; conditions: mouse, 10 mg/kg IP, plasma at 0.5, 1, 3, 8 h
Experimental: CD-1 mice with weights 23–25 g were purchased from Charles River Laboratories.
The animal experiments were performed at Alliance Pharma (Malvern, PA, USA) in accordance with the guide for the care and use of laboratory animals. Alliance Pharma is accredited by the Association for Assessment and Accreditation of Laboratory Animal Care (AAALAC).
The test compounds were dissolved in DMSO and then diluted to the appropriate concentration with the vehicle. For formulation we targeted the minimal amount of DMSO that could be used in combination with a formulation composed of 0.5% HPMC/0.2% Polysorbate 80. […] Blood was collected at t = 0.5, 1, 3, and 8 h and immediately spun for 3 min, the plasma was collected, and compound levels were quantified with HPLC/MS. The raw data are available in the Supplemental Information.
With the probe molecule having favorable selectivity and potency in vitro and in a cellular context, we next wanted to determine its suitability for in vivo experiments. SGC-CAMKK2-1 (5) was progressed to a single dose mouse intraperitoneal (I.P) experiment.

[3] = tested on: p-AMPK(Thr172) in C4-2 cells; test: Western blot of p-AMPK(Thr172) in C4-2 prostate cancer cells; assay type: cell-based; conditions: C4-2, 24 h, 24 h treatment, three individual experiments, read-out: IC50 for decrease of p-AMPK(Thr172) normalized to total AMPK
Experimental: C4-2 cells were plated in 6-well plates in IMEM medium containing 0.5% FBS. After 72 h, the cells were then treated with the compounds for 24 h before the media was aspirated and cells were washed twice in ice-cold PBS. Cells were lysed using RIPA buffer containing phosphatase and protease inhibitor cocktail while rotating for 30 min at 4 °C. In each lane, 30 μg/well of protein lysate was loaded into a 10% SDS-PAGE gel and run for 1 h and 30 min. Gels were then transferred overnight in a TRIS-glycine/methanol transfer buffer onto a PVDF membrane at 4 °C. Membranes were blocked, incubated with primary overnight at 4 °C, washed, incubated with secondary at room temperature for 1 h, washed, and then developed on an Azure Biosystems C-600 imager. Densitometry was performed using ImageJ. Total-AMPK was normalized to GAPDH and then p-AMPK was normalized to normalized total-AMPK. Normalized p-AMPK was used to calculate IC50 in GraphPad Prism 9.5.0. Primary antibodies used were from Cell Signaling (Danvers, MA, USA; Phospho-AMPKα (Thr172) (40H9) Rabbit mAb: Cat#: 2535; AMPKα (D5A2) Rabbit mAb Cat#: 5831), BD Bioscience (Franklin Lakes, NJ, USA; CAMKK2 mouse mAb Cat# 610544), and Sigma (St. Louis, MO, USA; GAPDH rabbit pAb: Cat# G9545). Secondary antibody (Goat Anti-Rabbit IgG (H + L)-HRP Conjugate; Cat#:1706515) was from Bio-Rad Laboratories (Hercules, CA, USA).
In this experiment, IC50 was calculated via quantifying changes in p-AMPK(Thr172) normalized to total AMPK levels.

O=C(O)c1ccc(-c2ccnc(Nc3cccc(-c4ccccc4)c3)n2)cc1 [Compound 4]
pIC50 (CAMKK2) [1]: 8.1

CN(C)Cc1ccc(-c2cc3c(-c4ccc(C(N)=O)cc4)ccnc3[nH]2)cc1 [Compound 3]
pIC50 (CAMKK2) [1]: 8.5

O=C(O)c1ccc2c3c1cccc3c(=O)n1c3ccccc3nc21 [STO-609, reference compound]
plasma concentration / in vivo PK (in words) [2]: considerably higher plasma concentrations than SGC-CAMKK2-1
IC50 [3]: 10.7 µM
